Measured values taken from ChEMBL document CHEMBL1201862, “PubChem BioAssay data set” (2004).
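Step 1: Grow cells in 96-well plates. Step 2: Expose to compound for 48 hours at 5 concentrations. Step 3: Interpolate endpoints linearly; if unreached, use highest concentration. The concentration for 50% growth inhibition is given as GI50.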 Active and inactive are the calls of the source. No stated cut-off is given here; in the data, active = GI50 up to about 1.1 µM and inactive = higher.

What was measured:
Experiment in all cases: DTP human tumour cell line panel, 48 h
[1] = test system: 786-0
[2] = test system: A498
[3] = test system: ACHN
[4] = test system: BT-549
[5] = test system: CAKI-1
[6] = test system: COLO 205
[7] = test system: DU-145
[8] = test system: EKVX
[9] = test system: HCC 2998
[10] = test system: HCT-116
[11] = test system: HCT-15
[12] = test system: HL-60
[13] = test system: HOP-62
[14] = test system: HT-29
[15] = test system: Hs-578T
[16] = test system: IGROV-1
[17] = test system: K562
[18] = test system: KM12
[19] = test system: LOX IMVI
[20] = test system: MCF7
[21] = test system: MDA-MB-231
[22] = test system: MDA-MB-435
[23] = test system: MDA-N
[24] = test system: MOLT-4
[25] = test system: Malme-3M
[26] = test system: NCI-H226
[27] = test system: NCI-H23
[28] = test system: NCI-H460
[29] = test system: NCI-H522
[30] = test system: NCI/ADR-RES
[31] = test system: OVCAR-3
[32] = test system: OVCAR-4
[33] = test system: OVCAR-5
[34] = test system: OVCAR-8
[35] = test system: PC-3
[36] = test system: RPMI-8226
[37] = test system: RXF 393
[38] = test system: SF-268
[39] = test system: SF-295
[40] = test system: SK-MEL-28
[41] = test system: SK-MEL-2
[42] = test system: SK-MEL-5
[43] = test system: SN12C
[44] = test system: SNB-19
[45] = test system: SNB-75
[46] = test system: SR
[47] = test system: SW-620
[48] = test system: T47D
[49] = test system: TK-10
[50] = test system: U-251
[51] = test system: UACC-257
[52] = test system: UACC-62
[53] = test system: UO-31
[54] = test system: A549
[55] = test system: CCRF-CEM
[56] = test system: M14
[57] = test system: SF-539
[58] = test system: SK-OV-3

Which GI50 [1] does the source give for `O=C(O)c1ccccc1Sc1ccc(C=C2NC(=S)N(c3ccccc3)C2=O)s1` here?
Its GI50 is 18.8 µM (inactive).

And the GI50 [2]?
The GI50 was > 100 µM (inactive).

And the GI50 [3]?
Its GI50 is 39.6 µM (inactive).

And the GI50 [4]?
The GI50 was > 100 µM (inactive).

And the GI50 [5]?
Its GI50 is 44.4 µM (inactive).

What about the GI50 [6] of the same compound?
Its GI50 is 54.7 µM (inactive).

What about the GI50 [7] of the same compound?
The GI50 was > 100 µM (inactive).

And the GI50 [8]?
The GI50 was 97.3 µM (inactive).

And the GI50 [9]?
The GI50 was 97.5 µM (inactive).

What about the GI50 [10] of the same compound?
The GI50 was 72.8 µM (inactive).

What about the GI50 [11] of the same compound?
Its GI50 is > 100 µM.

What about the GI50 [12] of the same compound?
Its GI50 is 25.2 µM (inactive).

And the GI50 [13]?
The GI50 was > 100 µM (inactive).

And the GI50 [14]?
Its GI50 is > 100 µM (inactive).

What about the GI50 [15] of the same compound?
Its GI50 is > 100 µM (inactive).

And the GI50 [16]?
The GI50 was > 100 µM (inactive).

What about the GI50 [17] of the same compound?
The GI50 was 31.6 µM (inactive).

And the GI50 [18]?
Its GI50 is > 100 µM (inactive).

What about the GI50 [19] of the same compound?
Its GI50 is > 100 µM (inactive).

What about the GI50 [20] of the same compound?
Its GI50 is > 100 µM (inactive).

And the GI50 [21]?
The GI50 was > 100 µM (inactive).

What about the GI50 [22] of the same compound?
The GI50 was > 100 µM (inactive).

What about the GI50 [23] of the same compound?
Its GI50 is > 100 µM (inactive).

And the GI50 [24]?
Its GI50 is 54.1 µM (inactive).

What about the GI50 [25] of the same compound?
Its GI50 is > 100 µM (inactive).

What about the GI50 [26] of the same compound?
The GI50 was > 100 µM (inactive).

And the GI50 [27]?
Its GI50 is > 100 µM (inactive).

What about the GI50 [28] of the same compound?
Its GI50 is > 100 µM (inactive).

What about the GI50 [29] of the same compound?
Its GI50 is 21.4 µM (inactive).

What about the GI50 [30] of the same compound?
The GI50 was > 100 µM (inactive).

What about the GI50 [31] of the same compound?
The GI50 was 47.5 µM (inactive).

What about the GI50 [32] of the same compound?
The GI50 was 24.9 µM (inactive).

And the GI50 [33]?
Its GI50 is > 100 µM (inactive).

And the GI50 [34]?
The GI50 was > 100 µM (inactive).

What about the GI50 [35] of the same compound?
The GI50 was > 100 µM (inactive).

And the GI50 [36]?
The GI50 was 41 µM (inactive).

What about the GI50 [37] of the same compound?
Its GI50 is > 100 µM (inactive).

What about the GI50 [38] of the same compound?
Its GI50 is > 100 µM (inactive).

And the GI50 [39]?
The GI50 was > 100 µM (inactive).

And the GI50 [40]?
The GI50 was > 100 µM (inactive).

What about the GI50 [41] of the same compound?
The GI50 was 22.2 µM (inactive).

And the GI50 [42]?
Its GI50 is > 100 µM (inactive).

What about the GI50 [43] of the same compound?
Its GI50 is > 100 µM (inactive).

And the GI50 [44]?
Its GI50 is > 100 µM (inactive).

What about the GI50 [45] of the same compound?
The GI50 was > 100 µM (inactive).

And the GI50 [46]?
Its GI50 is 29 µM (inactive).

What about the GI50 [47] of the same compound?
The GI50 was > 100 µM (inactive).

What about the GI50 [48] of the same compound?
Its GI50 is 77.6 µM (inactive).

And the GI50 [49]?
The GI50 was 76.2 µM (inactive).

What about the GI50 [50] of the same compound?
The GI50 was > 100 µM (inactive).

What about the GI50 [51] of the same compound?
Its GI50 is > 100 µM (inactive).

And the GI50 [52]?
The GI50 was > 100 µM (inactive).

And the GI50 [53]?
Its GI50 is 78.7 µM (inactive).

How did the GI50 [1] turn out when `CC(O)(CCCCCl)c1nc2ccccc2s1` (configuration not stated) was run?
The GI50 was > 100 µM (inactive).

What about the GI50 [2] of the same compound?
Its GI50 is > 100 µM (inactive).

What about the GI50 [54] of the same compound?
Its GI50 is > 100 µM (inactive).

What about the GI50 [3] of the same compound?
The GI50 was > 100 µM (inactive).

What about the GI50 [4] of the same compound?
The GI50 was 67.9 µM (inactive).

And the GI50 [5]?
The GI50 was > 100 µM (inactive).

And the GI50 [55]?
Its GI50 is > 100 µM (inactive).

And the GI50 [6]?
The GI50 was > 100 µM (inactive).

What about the GI50 [7] of the same compound?
Its GI50 is > 100 µM (inactive).

And the GI50 [8]?
Its GI50 is 52.4 µM (inactive).

What about the GI50 [10] of the same compound?
The GI50 was 47 µM (inactive).

What about the GI50 [11] of the same compound?
The GI50 was > 100 µM.

And the GI50 [12]?
The GI50 was 60.4 µM (inactive).

And the GI50 [13]?
The GI50 was > 100 µM (inactive).

And the GI50 [14]?
The GI50 was 65.9 µM (inactive).

And the GI50 [15]?
The GI50 was > 100 µM (inactive).

And the GI50 [16]?
The GI50 was > 100 µM (inactive).

And the GI50 [17]?
Its GI50 is 89.9 µM (inactive).

What about the GI50 [18] of the same compound?
Its GI50 is > 100 µM (inactive).

And the GI50 [19]?
Its GI50 is 48.4 µM (inactive).

And the GI50 [56]?
Its GI50 is > 100 µM (inactive).

What about the GI50 [20] of the same compound?
The GI50 was 71.8 µM (inactive).

And the GI50 [21]?
The GI50 was 96.4 µM (inactive).

What about the GI50 [22] of the same compound?
The GI50 was > 100 µM (inactive).

And the GI50 [23]?
Its GI50 is > 100 µM (inactive).

And the GI50 [24]?
Its GI50 is 50.7 µM (inactive).

What about the GI50 [26] of the same compound?
Its GI50 is > 100 µM (inactive).

What about the GI50 [27] of the same compound?
The GI50 was > 100 µM (inactive).

What about the GI50 [29] of the same compound?
The GI50 was > 100 µM (inactive).

What about the GI50 [30] of the same compound?
The GI50 was 98.2 µM (inactive).

What about the GI50 [31] of the same compound?
Its GI50 is > 100 µM (inactive).

And the GI50 [32]?
Its GI50 is > 100 µM (inactive).

And the GI50 [33]?
Its GI50 is > 100 µM (inactive).

What about the GI50 [34] of the same compound?
Its GI50 is > 100 µM (inactive).

What about the GI50 [35] of the same compound?
The GI50 was 34.9 µM (inactive).

And the GI50 [36]?
Its GI50 is 97.5 µM (inactive).

And the GI50 [38]?
Its GI50 is 52.8 µM (inactive).

And the GI50 [39]?
Its GI50 is > 100 µM (inactive).

What about the GI50 [57] of the same compound?
Its GI50 is > 100 µM (inactive).

And the GI50 [40]?
The GI50 was > 100 µM (inactive).

And the GI50 [41]?
Its GI50 is > 100 µM (inactive).

And the GI50 [42]?
Its GI50 is 51.4 µM (inactive).

What about the GI50 [58] of the same compound?
Its GI50 is > 100 µM (inactive).

What about the GI50 [43] of the same compound?
The GI50 was > 100 µM (inactive).

What about the GI50 [44] of the same compound?
Its GI50 is > 100 µM (inactive).

And the GI50 [45]?
The GI50 was > 100 µM (inactive).

What about the GI50 [46] of the same compound?
The GI50 was 53 µM (inactive).

And the GI50 [47]?
The GI50 was > 100 µM (inactive).

And the GI50 [48]?
The GI50 was 29.8 µM (inactive).

What about the GI50 [49] of the same compound?
The GI50 was > 100 µM (inactive).

And the GI50 [50]?
The GI50 was 85.5 µM (inactive).

What about the GI50 [51] of the same compound?
Its GI50 is > 100 µM (inactive).

What about the GI50 [52] of the same compound?
The GI50 was > 100 µM (inactive).

What about the GI50 [53] of the same compound?
Its GI50 is 64.1 µM (inactive).
